Experimental data as given in BindingDB's records for doi:10.1021/acs.jmedchem.7b01709 (Kobe Gakuin University, 2018).

Assays:
[1] = Inhibition of protease L10F/V32I/M46I/I47V/Q58E/I84V mutant in HIV1 A17 infected in human MT4 cells assessed as reduction in virus-induced cytopathic effect after 5 days by MTT assay
[2] = Inhibition of DRV-resistant protease V32I/L33F/I54M/V82I mutant in HIV1 transfected in 293T cells after 48 hrs by lentiviral vector-based luciferase reporter gene assay
[3] = Inhibition of DRV-resistant protease V32I/L33F/I54M/I84V mutant in HIV1 transfected in 293T cells after 48 hrs by lentiviral vector-based luciferase reporter gene assay

SMILES | EC50 [1] [nM] | EC50 [2] [nM] | EC50 [3] [nM]
Cc1cccc(C)c1CNC(=O)[C@H]1N(C(=O)[C@@H](O)[C@H](Cc2ccccc2)NC(=O)[C@@H](NC(=O)c2cc3ccccc3o2)[C@H]2CCOC2)CSC1(C)C | 678 | – | –
COc1cccc2cc(C(=O)N[C@H](C(=O)N[C@@H](Cc3ccccc3)[C@H](O)C(=O)N3CSC(C)(C)[C@H]3C(=O)NCc3c(C)cccc3C)C(C)C)oc12 | 309 | – | –
Cc1cccc(C)c1CNC(=O)[C@H]1N(C(=O)[C@@H](O)[C@H](Cc2ccccc2)NC(=O)[C@@H](NC(=O)c2cc3ccccc3o2)C(C)C)CSC1(C)C | 1100 | – | –
Cc1cccc(C)c1CNC(=O)[C@H]1N(C(=O)[C@@H](O)[C@H](Cc2ccccc2)NC(=O)[C@@H](NC(=O)COc2cccc(N(C)C)c2)[C@H]2CCOC2)CSC1(C)C | 165 | – | –
Cc1cccc(C)c1CNC(=O)[C@H]1N(C(=O)[C@@H](O)[C@H](Cc2ccccc2)NC(=O)[C@@H](NC(=O)COc2cccc(Nc3ccccc3)c2)[C@H]2CCOC2)CSC1(C)C | 226 | – | –
COc1cccc2cc(C(=O)N[C@@H](CC(N)=O)C(=O)N[C@@H](Cc3ccccc3)[C@H](O)C(=O)N3CSC(C)(C)[C@H]3C(=O)NCc3c(C)cccc3C)oc12 | 84 | – | –
COc1cccc2cc(C(=O)N[C@H](C(=O)N[C@@H](Cc3ccccc3)[C@H](O)C(=O)N3CSC(C)(C)[C@H]3C(=O)NCc3c(C)cccc3C)[C@H]3CCOC3)oc12 | 25 | 0.3 | 1.2
Cc1ccccc1CNC(=O)[C@H]1N(C(=O)[C@@H](O)[C@H](Cc2ccccc2)NC(=O)c2cccc(O)c2C)CSC1(C)C [AG1776] | 2730 | – | –
Cc1ccccc1CNC(=O)[C@H]1N(C(=O)[C@@H](O)[C@H](Cc2ccccc2)NC(=O)[C@@H](NC(=O)c2cnc3ccccc3n2)[C@H]2CCOC2)CSC1(C)C | 95 | – | –
Cc1cccc(C)c1CNC(=O)[C@H]1N(C(=O)[C@@H](O)[C@H](Cc2ccccc2)NC(=O)[C@H](CC(N)=O)NC(=O)c2cc3ccccc3o2)CSC1(C)C | 61 | – | –
